Consider five compounds from patent US12630517B2, “Process for preparing large size isoxazoline particles” (Intervet Inc., priority 2017, dated 2026).

Format in all cases: physicochemical
Data set [1] is described as follows: Volume weighted particle size distribution by laser diffraction (Sympatec Helos). The conditions noted are these: for x50/d50 particle size dimension at end of recycle loop: in-process slurry at 54° C., after the recycle loop, before final cooling. From the text:
As used herein, particle size data reported are volume weighted as measured by conventional particle techniques well known to those skilled in the art, such as static light scattering (also known as laser diffraction), image analysis or sieving. More discussion of particle size measurement is provided below.
The volume weighted particle size can be measured by sieving, microscopy or laser diffraction (Malvern or Sympatec) The volume weighted particle size measurement can be performed with a Malvern Mastersizer 2000 with the Hydro 2000G measuring cell, or with a Horiba LA-910 laser scattering particle size distribution analyzer. The volume weighted particle size can be measured by a Sympatec Helos instrument.
(§1) The volume weighted particle size of the fluralaner crystals was measured by laser diffraction (Sympatec Helos) to determine the particle size distribution. The mechanical resiliency was also determined during a pressure titration experiment. […] In this case, this material is the product of the previous commercial process using an unseeded, distillative crystallization process from an ethyl acetate, toluene solvent system. Of note is the lower particle size and general wider distribution of sizes of the particles.

The nature of data set [2]: Pressure titration for mechanical resiliency (Sympatec HELOS), 1 to 3 bar dispersion pressure. The settings on record: for reduction in x50/d50 from the pressure titration from 1 bar to 3 bar: dried particles of the example (FIG. 10, FIG. 15).
From the text: Mechanical resiliency is the resistance of crystals or particles to break into smaller crystals or particles when exposed to pressure or stress from other sources. Mechanical resiliency can be measured by a pressure titration using the Sympatec HELOS. This instrument can simultaneously measure the particle size distribution. In this experiment, pressure is applied to the crystals to disperse or separate them one from another. The change in the particle size distribution measurement of d50 is monitored as the pressure on the crystals is increased from 1 bar to 3 bars. Preferably, the isoxazoline compound particles of the subject invention will not decrease their particle size distribution measurement of d50 by more than 30-40% when the dispersion pressure is increased from 1 to 3 bar.
as §1
In this experiment, the particle size distribution was monitored as the particles are exposed to increasing pressure from 1 bar to 3 bar. […] Moreover, the particle size distribution curve broadens and shifts towards smaller particle sizes. This is evidence that these particles are being broken under the increased pressure and is an indication that the particles were very thin.

The nature of data set [3]: Particle size by wet method, Microtrac static light scattering. The settings on record: FIG. 13. Here is the method: FIG. 13—Particle size distribution of the material made from Example 4. […] The particle size measurement for this sample was conducted with a wet method using a Microtrac static light scattering system.
Data set [4] in a line: Scanning electron microscopy of particles. From the text:
Scanning electron microscopy (SEM) is an analytical instrument that uses a focused beam of high-energy electrons to generate a variety of signals at the surface of solid specimens. The signals reveal information about the sample including external morphology (texture), chemical composition, and crystalline structure and orientation of materials making up the sample. FIG. 8 is a scanning electron microscopy image of fluralaner particles that were not produced the inventive process. Of note is that these crystals are rather thin. FIG. 9 is a scanning electron microscopy image of fluralaner particles that were produce by the inventive process. In contrast to the particles shown in FIG. 8, these particles are large (around 100 μm) and thick (around 10-20 μm).

Where [5] appears, read: FIG. 9, particles produced by the inventive process.

In the case of `Cc1cc(C2=NOC(c3cc(Cl)cc(Cl)c3)(C(F)(F)F)C2)ccc1C(=O)NCC(=O)NCC(F)(F)F` (stereo not drawn) [Example 1], the “x50/d50 particle size dimension at end of recycle loop” value (shortened to “x50/d50 particle size dimension”) in data set [1] is “approximately 40 μm”.
On to `Cc1cc(C2=NOC(c3cc(Cl)cc(Cl)c3)(C(F)(F)F)C2)ccc1C(=O)NCC(=O)NCC(F)(F)F` (stereo not drawn) [Example 3], for which the “x50 of resulting material” value in data set [1] (FIG. 10, dried particles) worked out at 108. In addition, the “x50/d50 particle size dimension” value in data set [1] is on record as “approximately 45 μm”. The “reduction in x50/d50 from the pressure titration from 1 bar to 3 bar” value in data set [2] was “approximately 24%”.
Consider `Cc1cc(C2=NOC(c3cc(Cl)cc(Cl)c3)(C(F)(F)F)C2)ccc1C(=O)NCC(=O)NCC(F)(F)F` (stereo not drawn) [Example 4], for which the “x50/d50 particle size dimension” value in data set [1] was “approximately 40 μm”. In data set [3], this compound showed a d10 of 47.3 μm, a d50 of 103 μm and a d90 of 158.8 μm.
For the compound `Cc1cc(C2=NOC(c3cc(Cl)cc(Cl)c3)(C(F)(F)F)C2)ccc1C(=O)NCC(=O)NCC(F)(F)F` (stereo not drawn) [Example 5], the “average d50 of resulting material” value in data set [1] (FIG. 15, crystallised from 5:3 toluene:ethyl acetate) came out at 99 μm. Besides, the “x50/d50 particle size dimension” value in data set [1] is “approximately 50 μm”. Further, the “reduction in x50/d50 from the pressure titration from 1 bar to 3 bar” value in data set [2] was “approximately 20%”.
Take `Cc1cc(C2=NOC(c3cc(Cl)cc(Cl)c3)(C(F)(F)F)C2)ccc1C(=O)NCC(=O)NCC(F)(F)F` (stereo not drawn) [fluralaner, 4-[5-(3,5-Dichlorophenyl)-5-trifluoromethyl-4,5-dihydroisoxazol-3-yl]-2-methyl-N-[(2,2,2-trifluoro-ethylcarbamoyl)-methyl]-benzamide]: the “particle thickness by SEM” value in data set [4] (FIG. 8, particles not produced by the inventive process) is on record as “rather thin”. Moreover, in data set [4] (setting [5]), the “particle size by SEM” value is on record as “around 100 μm” and the “particle thickness by SEM” value is given as 10-20 μm. In addition, in data set [2] (FIG. 5, crystals not produced by the inventive process, 2 bar), the “particle size (x50) at 2 bar dispersing pressure” value worked out at 80 μm. Further, in data set [2] (FIG. 6, crystals produced by the inventive process, 1 bar), the “particle size (d50) at 1 bar” value turned out to be 100 μm. Also, the “particle size (d50) at 3 bar” value in data set [2] (FIG. 6, crystals produced by the inventive process, 3 bar) was determined as 73 μm. In addition, the “loss of d50 in pressure titration” value in data set [2] (FIG. 7, additional batch produced by the inventive process) is listed as “around 35%”. Moreover, the “d50 after pressure titration” value in data set [2] (FIG. 7, additional batch produced by the inventive process, after pressure increase) was “around 67 μm”. The “original d50” value in data set [2] (FIG. 7, additional batch produced by the inventive process, before pressure increase) is “around 103 μm”. Moreover, the “d50 reduction in pressure titration test” value in data set [2] (FIG. 10, crystals produced by the inventive process, % of the original value) is given as “around 25%”.
